Numbering of substitutions follows the chain as printed. Where two headings read alike, the source gives them in different places.
Experiments:
CYP2A7-WT [1] = target: T1, CYP2A7-WT (Homo sapiens, UniProt P20853, D169E/H274R/R311C/V479G); experiment: Conversion of luminogenic (proluciferin) substrates by permeabilized fission yeast cells (enzyme bags); type: biochemical; parameters: expressed in transfected cells; host or cells: Schizosaccharomyces pombe strain AA01 (pREP1-CYP2A7-WT in CAD62), permeabilized cells (enzyme bags); settings: for Luminescence (RLU): enzyme CYP2A7-WT coexpressed with CPR, compound as substrate, 3 h, 37 °C, mean ± SD
T1 sequence (P20853 1-494 D169E/H274R/R311C/V479G): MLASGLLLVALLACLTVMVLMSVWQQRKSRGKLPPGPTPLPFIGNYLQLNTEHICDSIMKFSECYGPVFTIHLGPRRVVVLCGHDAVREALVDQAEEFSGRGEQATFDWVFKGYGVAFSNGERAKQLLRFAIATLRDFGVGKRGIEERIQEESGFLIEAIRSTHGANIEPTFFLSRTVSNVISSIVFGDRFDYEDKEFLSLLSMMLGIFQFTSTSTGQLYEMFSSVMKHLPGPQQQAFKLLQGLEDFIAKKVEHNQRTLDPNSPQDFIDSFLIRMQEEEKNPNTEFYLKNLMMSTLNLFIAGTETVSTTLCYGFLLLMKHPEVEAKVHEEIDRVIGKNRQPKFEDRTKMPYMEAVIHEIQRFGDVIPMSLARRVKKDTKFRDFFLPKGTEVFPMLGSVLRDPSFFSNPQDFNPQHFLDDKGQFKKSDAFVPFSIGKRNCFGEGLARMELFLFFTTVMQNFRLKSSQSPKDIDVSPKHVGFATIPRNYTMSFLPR
Experimental: (§1) Briefly, a concentrated CYP reaction mixture (containing a fourfold concentrated substrate and potassium phosphate buffer) was added to the cell pellets after the permeabilization and washing process. For inhibition assays, the CYP reaction mixtures with the inhibitors at a final concentration of 10 µM were pre-incubated at 37 °C for 10 min. CYP reactions were commenced by adding the twofold concentrated NADPH regeneration system. Samples were incubated for 3 h at 37 °C and 1000 rpm. After centrifugation at 16,000× g for 1 min, the supernatants were transferred to the white microtiter plates and an equal amount of reconstituted luciferin detection reagent was added to each well. Plates were then incubated at room temperature for 20 min and the luminescence was recorded on a Magellan infinite 200Pro microplate reader (Tecan; Männedorf, Switzerland). For the proluciferin substrates’ screening, the specific reaction conditions and substrate concentrations were as given in the instructions of the manufacturer (Promega). […] For inhibitor assays, ketoconazole, 1-benzylimidazole, and letrozole were added to a final concentration of 10 µM. All measurements were done at least three times in triplicates.

CYP2A7*1 [2] = target: T2, CYP2A7*1 (Homo sapiens, UniProt P20853); experiment: as above; type: biochemical; parameters: expressed in transfected cells; host or cells: Schizosaccharomyces pombe strain RAJ127 (pREP1-CYP2A7*1 in CAD62), permeabilized cells (enzyme bags); settings: for Conversion of luminogenic substrate (in words): by CYP2A7*1, vs. negative control (CPR only); for Luminescence (RLU): enzyme CYP2A7*1 coexpressed with CPR, compound as substrate, 3 h, 37 °C, mean ± SD
T2 sequence (P20853 1-494): T1 sequence (P20853 1-494 D169E/H274R/R311C/V479G) with E169D, R274H, C311R, G479V
Experimental: as §1

CYP2A7*1 [3] = target: T2, CYP2A7*1; experiment: in vitro
CYP2A7-WT [4] = target: T1, CYP2A7-WT; experiment: in vitro
CYP2A6*1 [5] = target: T3, CYP2A6*1 (Homo sapiens, UniProt P11509); experiment: in vitro
T3 sequence (P11509 1-494): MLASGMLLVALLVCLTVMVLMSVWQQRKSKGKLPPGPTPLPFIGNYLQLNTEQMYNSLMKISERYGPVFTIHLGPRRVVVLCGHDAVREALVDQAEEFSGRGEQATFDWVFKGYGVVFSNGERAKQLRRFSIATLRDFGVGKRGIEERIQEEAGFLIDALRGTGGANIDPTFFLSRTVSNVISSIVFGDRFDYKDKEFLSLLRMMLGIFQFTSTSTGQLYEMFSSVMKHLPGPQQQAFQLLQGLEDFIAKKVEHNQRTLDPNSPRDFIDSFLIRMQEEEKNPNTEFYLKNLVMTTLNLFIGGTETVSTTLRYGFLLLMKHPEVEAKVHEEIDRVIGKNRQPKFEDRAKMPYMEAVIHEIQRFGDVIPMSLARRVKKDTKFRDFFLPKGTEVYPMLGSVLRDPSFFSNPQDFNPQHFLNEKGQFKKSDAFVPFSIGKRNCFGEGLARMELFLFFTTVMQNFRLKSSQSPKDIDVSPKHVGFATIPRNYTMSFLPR

CYP2A6*1 [6] = target: T3, CYP2A6*1; experiment: Fluorescence detection of coumarin 7-hydroxylation and deethylation of 7-ethoxycoumarin; type: biochemical; parameters: expressed in transfected cells; host or cells: Schizosaccharomyces pombe strain RAJ122 (pREP1-CYP2A6*1 in CAD62), permeabilized cells (enzyme bags); settings: by CYP2A6*1; fluorometric
Experimental: (§2) The fluorescence activity of CYP enzymes was measured as described with slight modifications. The solution was shaken at 37 °C for 3 h in the dark at a 50 µL final reaction volume. Afterwards, reactions were stopped by adding 350 µL ethyl acetate. The reaction tubes were vortexed for 5 min before centrifugation at 16,000× g for 8 min. Finally, 200 µL of the upper phase was extracted three times with 350 µL of ethyl acetate each. In the last step, the reaction tubes were air-dried in the dark. For reconstituting the pellet we added 50 µL of methanol, which was later followed by the addition of 250 µL of 0.01 M NaOH. The amounts of de-ethylated products were quantified by using standard solutions of 7-hydroxycoumarin and 7-ethoxycoumarin. The concentrations of 7-hydroxycoumarin were determined fluorometrically with 50 µL volume using Grenier microlon flat-bottom 96-well black plates. The energies for excitation and emission were set at 368 and at 530 nm, respectively. All readings were taken in triplicate.

CYP2A7*1 [7] = target: T2, CYP2A7*1; experiment: as above; type: biochemical; parameters: expressed in transfected cells; host or cells: Schizosaccharomyces pombe strain RAJ127 (pREP1-CYP2A7*1 in CAD62), permeabilized cells (enzyme bags); settings: by CYP2A7*1; fluorometric
Experimental: as §2

CYP2A7-WT [8] = target: T1, CYP2A7-WT; experiment: as above; type: biochemical; parameters: expressed in transfected cells; host or cells: Schizosaccharomyces pombe strain AA01 (pREP1-CYP2A7-WT in CAD62), permeabilized cells (enzyme bags); settings: by CYP2A7-WT; fluorometric
Experimental: as §2

CYP2A6*1 [9] = target: T3, CYP2A6*1; settings: by CYP2A6*1, vs. negative control (CPR only)
Experimental: This was performed as described previously with slight modifications. Briefly, fission yeast cells were cultured on EMM plates with 5 µM thiamine for 3 days at 30 °C. A single yeast colony was then transferred to a 10 mL liquid culture of EMM without thiamine and cultured at 30 °C and 230 rpm for 36 h. As the recombinant expression of the human enzymes is controlled by the strong endogenous nmt1 promoter, all subsequent cultures were cultured in the absence of thiamine to keep the promoter in an active state. For each activity assay, 5 × 10^7 cells (stationary growth phase) were transferred to 1.5 mL Eppendorf tubes (Axygen; Silicon Valley, USA), pelleted, and incubated in 1 mL of 0.3% Triton-X100 in Tris-KCl buffer (200 mM KCl, 100 mM Tris-HCl pH 7.8) at room temperature for 60 min at 150 rpm for permeabilization. After three washes with 1 mL NH4HCO3 buffer (50 mM, pH 7.8), cells were resuspended in phosphate buffer (pH 7.4) and then the substrate and the NADPH regeneration system were added to a total volume of 50 µL. The samples were incubated at 37 °C and 1000 rpm for 3 h. […]
This was performed as described previously with slight modifications. […] Plates were then incubated at room temperature for 20 min and the luminescence was recorded on a Magellan infinite 200Pro microplate reader (Tecan; Männedorf, Switzerland). […]

[10] = pH 7.4, probe Luciferin-H (100 µM)

O=C(O)[C@H]1CSC(c2nc3ccc(OCc4ccccc4)cc3s2)=N1 [Luciferin-BE]
Luminescence (RLU) (CYP2A7-WT [1]): 6312 ± 699 RLU | Conversion of luminogenic substrate (in words) (CYP2A7*1 [2]): are CYP2A7*1 substrates | Luminescence (RLU) (CYP2A7*1 [2]): 16,216 ± 369 RLU

N#Cc1ccc(C(c2ccc(C#N)cc2)n2cncn2)cc1 [Letrozole]
inhibition at 3 h, 10 µM (CYP2A7*1 [3]; [10]): 78 ± 7% | inhibition at 3 h, 10 µM (CYP2A7-WT [4]; [10]): 72 ± 13% | inhibition at 3 h, 10 µM (CYP2A6*1 [5]; probe Luciferin-H (100 µM)): 64 ± 10%

O=c1ccc2ccccc2o1 [Coumarin, coumarin]
Conversion to 7-hydroxycoumarin (CYP2A6*1 [6]): confirmed the activity | Conversion to 7-hydroxycoumarin (CYP2A7*1 [7]): no reaction was observed | Conversion to 7-hydroxycoumarin (CYP2A7-WT [8]): no reaction was observed

CC(=O)N1CCN(c2ccc(OCC3COC(Cn4ccnc4)(c4ccc(Cl)cc4Cl)O3)cc2)CC1 (centres unmarked) [Ketoconazole]
inhibition at 3 h, 10 µM (CYP2A7*1 [3]; [10]): 74 ± 4% | inhibition at 3 h, 10 µM (CYP2A7-WT [4]; [10]): 58 ± 17% | inhibition at 3 h, 10 µM (CYP2A6*1 [5]; probe Luciferin-H (100 µM)): 70 ± 11%

COc1ccc2nc(C3=NC(C(=O)O)CS3)sc2c1 (centres unmarked) [Luciferin-ME]
Conversion of luminogenic substrate (in words) (CYP2A6*1 [9]): can both metabolize | Conversion of luminogenic substrate (in words) (CYP2A7-WT [1]; by CYP2A7-WT, vs. negative control (CPR only)): also acted on both substrates | Luminescence (RLU) (CYP2A7-WT [1]): 439 ± 113 RLU | Conversion of luminogenic substrate (in words) (CYP2A7*1 [2]): can both metabolize | Luminescence (RLU) (CYP2A7*1 [2]): 276 ± 63 RLU

CCOc1ccc2ccc(=O)oc2c1 [7-ethoxycoumarin]
Conversion to 7-hydroxycoumarin (CYP2A6*1 [6]): confirmed the activity | Conversion to 7-hydroxycoumarin (CYP2A7*1 [7]): no reaction was observed | Conversion to 7-hydroxycoumarin (CYP2A7-WT [8]): no reaction was observed

c1ccc(Cn2ccnc2)cc1 [1-Benzyl-imidazole]
inhibition at 3 h, 10 µM (CYP2A7*1 [3]; pH 7.4): 55 ± 11% | inhibition at 3 h, 10 µM (CYP2A7-WT [4]; pH 7.4): 80 ± 21% | inhibition at 3 h, 10 µM (CYP2A6*1 [5]): 64 ± 12%

Source: paper PMC11123773, “Identification of New Substrates and Inhibitors of Human CYP2A7” (Molecules, 2024)
